Reference: patent publication US12171807B2, “Use of bremelanotide in patients with controlled hypertension” (Cosette Pharmaceuticals, Inc., priority 2020, dated 2024)

Tests used:
[1] = Drug-drug interaction study with antihypertensive agents, single dose bremelanotide 1.75 mg SC vs placebo, ambulatory BP monitoring; type: in vivo, human
Protocol: An additional study evaluated the effects of single doses of bremelanotide 1.75 mg SC and placebo SC in normotensive, healthy women pre-treated with 5 different classes of antihypertensive drugs in a double-blind cross-over design using ambulatory BP monitoring. The washout period between randomized, blinded treatments was 48 hours. This study included both premenopausal and postmenopausal women. There were 15 healthy […] subjects in each panel of the antihypertensive medications with the exception of the beta-blocker metoprolol (n=17). Blood pressures at baseline in the various panels were low normal (24 hour systolic BPs ranging from 109 to 114 mmHg and 24 hour diastolic BPs ranging from 67 to 72 mmHg (FIG. 2). The placebo-corrected changes from baseline in the 24-hour systolic BPs on bremelanotide 1.75 mg SC ranged from 1.7 mmHg on amlodipine to 3.8 mmHg on hydrochlorothiazide; changes in the 24 hour diastolic BPs ranged from 1.8 mmHg on metoprolol to 2.8 mmHg on lisinopril. In 4 of the 5 classes of antihypertensive medications, nighttime BP changes were substantially lower than daytime BP changes. In study participants pre-treated with hydrochlorothiazide 12.5 mg daily, nighttime BPs increased by 5.5/4.5 mmHg. In review of individual subjects in the HCTZ panel, it was noted that 4 study participants had large reductions in nighttime SBP (10-15 mmHg) on placebo while on bremelanotide 4 study participants had large increases in nighttime SBP (10-15 mmHg).
1. […] There was an elevation in nighttime BP in patients pre-treated with hydrochlorothiazide 12.5 mg, which has no apparent pharmacologic basis and is like the result of random variability in both the bremelanotide and placebo sub-groups. As noted, there was no similar finding in the 4 other antihypertensive panels.

[2] = Repeat dosing ambulatory blood pressure monitoring study, bremelanotide 1.75 mg SC daily for 8 days then randomized withdrawal (days 9 to 16); type: in vivo, human; settings: for mean change (95% CI) in daytime systolic BP: day 8; for Difference from Baseline, daytime diastolic BP at Day 8 / Difference from Baseline, daytime systolic BP at Day 8: BP in mmHg
Protocol: The study focusing on the impact of repeat dosing on blood pressure included 127 women treated with bremelanotide 1.75 mg administered subcutaneously (SC) daily for 8 consecutive days, followed by a randomized withdrawal period of 8 additional consecutive days (days 9 to 16) in which study participants were randomized to either remain on bremelanotide 1.75 mg SC daily or placebo SC daily. Ambulatory blood pressure monitoring was performed on baseline day −1 (single blind placebo), day 8 and on day 16. After 8 days of dosing of bremelanotide 1.75 mg SC, the mean changes from baseline in the 24 hour systolic and diastolic BPs (FIG. 1) were below 2 mmHg. Importantly, the upper bound of the 95% confidence interval for the mean changes in daytime systolic BP (a pre-specified outcome) was below 4 mmHg. These increases in BP were accompanied by small to no reductions in the heart rate of 1 beat/minute or less.
There were 122 (96%) study participants who completed the randomized withdrawal portion of the study. […] In those randomized to placebo, returns toward baseline BP values were observed (generally a 2 mmHg decline from day 8).
The patient population was comprised of normotensive premenopausal women and included 2 women with a medical history of hypertension on antihypertensive therapy. One subject was being treated for hypertension with Lisinopril. The other subject was being treated for hypertension with chlorthalidone. Both subjects received all 16 injections; 8 doses in the Open-Label Period and 8 doses in the Randomized Withdrawal Period (one subject was randomized to each treatment group). […] The mean changes from Baseline (Day −1) at Day 8 during daytime in these two subjects are shown in the below table. Changes in daytime HR at Day 8 were −1.7 bpm for the subject and −1.4 bpm for the subject.
In order to better understand the potential effects of the drug in patients with higher BP values at baseline, an exploratory analysis was performed from the trial evaluating those women whose baseline BP was in the 90th percentile (pre-dose systolic BP >124 mmHg) to determine if the pressor response of bremelanotide differed from those study participants whose baseline BP was below the 90th percentile (pre-dose systolic BP <124 mmHg). At day 8, mean changes (95% CI) from the daytime systolic BP in those study participants in the 90th percentile or greater (n=17) at baseline was −0.16 (−2.06, 1.75) mmHg versus 2.03 (1.70, 2.36) mmHg in those whose baseline systolic BP was below the 90th percentile.

[3] = repeat doses of BMT; review of IND 64119; cited from earlier work
[4] = Repeat dosing ambulatory blood pressure monitoring study, bremelanotide 1.75 mg SC daily for 8 days then randomized withdrawal (days 9 to 16); type: in vivo, human; settings: after 16 days of dosing of bremelanotide 1.75 mg SC
[5] = Blood pressure by time post-dose, Bremelanotide 2 mg SC vs placebo; type: in vivo; settings: 2 mg SC (n = 30)
[6] = Pressor effect in obese women receiving supratherapeutic doses (6.5 mg daily) for 15 days; type: in vivo, human; settings: 15 days at 6.5 mg daily
[7] = single dose 1.75 mg SC, pre-treated with hydrochlorothiazide 12.5 mg daily
[8] = 2 women with history of hypertension on antihypertensive therapy
[9] = 61 women, 1.75 mg SC for 16 consecutive days
[10] = following 8 consecutive days of dosing
[11] = subject treated with Lisinopril
[12] = subject treated with chlorthalidone
[13] = subject with hypertension treated with Lisinopril, baseline (Day −1) 105/70 mmHg
[14] = subject with hypertension treated with chlorthalidone, baseline (Day −1) 121/81 mmHg

CCCC[C@H](NC(C)=O)C(=O)N[C@H]1CC(=O)NCCCC[C@@H](C(=O)O)NC(=O)[C@H](Cc2c[nH]c3ccccc23)NC(=O)[C@H](CCCN=C(N)N)NC(=O)[C@@H](Cc2ccccc2)NC(=O)[C@H](Cc2cnc[nH]2)NC1=O [bremelanotide, Ac-Nle-cyclo(-Asp-His-D-Phe-Arg-Trp-Lys)-OH]
large increases in nighttime SBP in individual subjects ([1]; 4 study participants of the HCTZ panel on bremelanotide): 10-15 mmHg
induction of hypertension by BP increases ([1]; single dose 1.75 mg SC, healthy women on antihypertensive therapy at steady-state): did not induce hypertension
nighttime BP increase, diastolic [1, 7]: 4.5 mmHg
nighttime BP increase, systolic [1, 7]: 5.5 mmHg
placebo-corrected change from baseline in 24-hour systolic BP ([1]; single dose 1.75 mg SC, women pre-treated with amlodipine): 1.7 mmHg
placebo-corrected change from baseline in 24-hour systolic BP ([1]; single dose 1.75 mg SC, women pre-treated with hydrochlorothiazide): 3.8 mmHg
placebo-corrected change from baseline in 24 hour diastolic BP ([1]; single dose 1.75 mg SC, women pre-treated with lisinopril): 2.8 mmHg
placebo-corrected change from baseline in 24 hour diastolic BP ([1]; single dose 1.75 mg SC, women pre-treated with metoprolol): 1.8 mmHg
outlier analysis: systolic BP elevation of >150 mmHg or diastolic BP elevation >95 mmHg lasting for 120 minutes ([2]; 1.75 mg SC daily): 1 (0.8%) study participants (%)
outlier analysis: systolic BP elevation of >160 mmHg or diastolic BP elevation of >100 mmHg lasting more than 90 minutes ([2]; 1.75 mg SC daily): 2 (1.6%) study participants (%)
abnormalities on ECG [2, 8]: neither subject had clinically significant abnormalities on ECG
cardiovascular TEAE [2, 8]: No cardiovascular TEAE were reported
intensity of TEAE [2, 8]: all were mild in intensity
increases in 24 hour BP from placebo baseline (Day −1) [2, 9]: < 1 mmHg
increases in average daytime BPs from placebo baseline (Day −1) [2, 9]: < 1.5 mmHg
cumulative effect on daytime BP or heart rate compared to baseline or day 8 ([2]; 16 days of consecutive administration): no cumulative increases in daytime BP or reductions in heart rate
reductions in the heart rate ([2]; after 8 days of 1.75 mg SC daily): ≤ 1 beat/minute
mean change from baseline in 24 hour diastolic BP ([2]; after 8 days of 1.75 mg SC daily, 127 women): below 2 mmHg
mean change (95% CI) in daytime systolic BP ([2]; baseline BP in the 90th percentile or greater (pre-dose systolic BP >124 mmHg), n=17): −0.16 (−2.06, 1.75) mmHg
mean change (95% CI) in daytime systolic BP ([2]; baseline systolic BP below the 90th percentile): 2.03 (1.70, 2.36) mmHg
time of peak effects on BP post-dose [2, 10]: 3 to 5 h
time post-dose by which BP effect attenuated [2, 10]: ≤ 8 h
nighttime BP ([2]; following 8 days of consecutive therapy): no increases in nighttime BP
complications or symptoms associated with transient stage 2 hypertension levels ([2]; outlier subjects): In none of these subjects were there complications or symptoms
Change in daytime HR at Day 8 [2, 11]: −1.7 bpm
Difference from Baseline, daytime diastolic BP at Day 8 [2, 11]: +4 diastolic
Difference from Baseline, daytime systolic BP at Day 8 [2, 11]: +3 systolic;
Change in daytime HR at Day 8 [2, 12]: −1.4 bpm
Difference from Baseline, daytime diastolic BP at Day 8 [2, 12]: −4 diastolic
Difference from Baseline, daytime systolic BP at Day 8 [2, 12]: −9 systolic;
Day 8 Daytime BP, diastolic [2, 13]: 74 mmHg
Day 8 Daytime BP, systolic [2, 13]: 108 mmHg
Day 8 Daytime BP, diastolic [2, 14]: 77 mmHg
Day 8 Daytime BP, systolic [2, 14]: 112 mmHg
duration of blood pressure effect [3]: at least four hours
increases in systolic and diastolic blood pressures [3]: approximately 4 mmHg
daytime systolic BP change by baseline BP percentile, trend [4]: Trends were similar
Diastolic Blood Pressure ([5]; Hour 1 post-dose): 1.00 (−3.13, 5.13)
Systolic Blood Pressure ([5]; Hour 1 post-dose): 2.36 (−2.15, 6.87)
Diastolic Blood Pressure ([5]; Hour 2 post-dose): 1.03 (−2.96, 5.02)
Systolic Blood Pressure ([5]; Hour 2 post-dose): 0.01 (−4.18, 4.20)
Diastolic Blood Pressure ([5]; Hour 3 post-dose): 1.26 (−2.74, 5.26)
Systolic Blood Pressure ([5]; Hour 3 post-dose): 0.84 (−3.55, 5.23)
Diastolic Blood Pressure ([5]; Hour 4 post-dose): −1.38 (−6.00, 3.24)
Systolic Blood Pressure ([5]; Hour 4 post-dose): 0.38 (−3.13, 3.90)
cumulative effect on blood pressure or heart rate [6]: no evidence for a cumulative effect on blood pressure or heart rate
